# Measurements: US20250186458A1, “METHODS FOR THE TREATMENT OF MILD COGNITIVE IMPAIRMENT” (BIOVIE INC., priority 2022, published 2025)
# Columns and labels:
# [1] = test system: patients with degenerative dementia; assay: Exit interviews with patients who completed NE3107-TRP-001; format: in vivo, human
# Experimental: The exit interviews were conducted in the US with 11 adult patients/study partners who completed the Phase 2 trial of NE3107. Participants (patients and study partners) completed one 60-minute semi-structured interview via remote videoconference to facilitate face-to-face communication.
# Each interview was divided into four parts: 1) elicitation of experience with degenerative dementia, 2) changes due to treatment with NE3107 and meaningfulness of those changes, 3) experience with NE3107 during the trial, and, if applicable, 4) study partner perceptions of the patient's changes during the trial and their trial experience.
# Interviews took place via videoconference with a trained and experienced interviewers using a semi-structured interview guide. Participants were required to confirm that they signed the ICF for the exit interview, and provide permission to record the interview. The interviews lasted approximately 60 minutes. Open-ended questions were used to characterize the participant's experience with degenerative dementia. Three overarching topics were covered: 1) degenerative dementia signs and symptoms prior to the trial, 2) changes experienced during the trial, and 3) experience with the trial medication (NE3107). Interviewers noted spontaneously reported changes experienced during the trial and followed up with probes (as needed) to elicit the full range of changes experienced.
# If both the patient and study partner participated, the patient was interviewed first with the study partner present. Following the patient interview, the study partner was interviewed without the patient present. Interviewers were instructed to direct the questions towards the patient and to remind the study partner that they would have an opportunity to add information or different perspectives at the end.
# The coding and analysis of the interview transcripts followed principles in line with qualitative thematic (content) analysis (Braun et al. 2019), with additional features drawn from grounded theory (Bryant and Charmaz 2007; Strauss and Corbin 1998). This approach conforms to best practices in the field (Patrick et al. 2011). A saturation table was developed during the coding process and updated after each interview to ensure that the interviews provided sufficient quality and quantity of data to support the study goals. The focus of saturation was changes due to treatment.
# During the interviews, patients were asked open-ended questions about any changes they experienced as a result of being treated with NE3107. Patients reported 14 unique change-related concepts related that were categorized as follows: cognitive (2 concepts), psychological (4 concepts), behavioral (2 concepts), physical (5 concepts), and no change (1 concept) (Table 3).
# [2] = test system: patients with mild or moderate dementia; assay: Exploratory Phase 2 trial NE3107-TRP-001 (ADAS-Cog 11, GRC, PHQ-9); format: in vivo, human; design: key to ADAS-Cog-11 score at 3M: ADAS-Cog11 score 0-70; higher = more severe cognitive impairment; conditions: for Patient Global Rating of Change (GRC): Month 3, scale −5 to 5; for ADAS-Cog-11 Change: baseline to 3M, decrease = improvement
# Experimental: An exploratory Phase 2 trial of 17α-ethynylandrost-5-ene-3β,7β,17β-triol (NE3107-TRP-001) in 23 patients with mild (n=17) or moderate dementia (n=6) were conducted. Comparisons between baseline and post-intervention (3 months) were evaluated via multi-modal brain magnetic resonance images (MRIs; primary endpoints), measures of glucose and insulin homeostasis, and neuropsychological testing (secondary endpoints).
# The interview results were compared with changes from baseline to Month 3 in cognitive functioning as measured by the ADAS-Cog11, and the patient-completed Global Rating of Change (GRC) at Month 3 in the Phase 2 trial (Table 8).
# The ADAS-Cog 11 is a performance-based assessment of cognitive function that includes 11 patient-completed tasks that measure word recall, objective/figure naming, command following, constructional praxis, ideational praxis, orientation, word recognition, test direction recall, spoken language, comprehension, and word-finding difficulty. Scores range from 0-70 where higher scores indicate more severe cognitive impairment (i.e., decreases in score over time indicate improvement in cognition). The GRC is a single item that asks patients to rate changes in their condition, abilities, and overall sense of well-being from the start of the trial. Scores range from −5 (“Very much worse”) to 0 (“Unchanged”) to +5 (“Very much better”).
structure (smiles),measurement,setting,value
"C#C[C@]1(O)CC[C@H]2[C@@H]3[C@@H](O)C=C4C[C@@H](O)CC[C@]4(C)[C@H]3CC[C@@]21C [17α-ethynylandrost-5-ene-3β,7β,17β-triol, 17-ethynyl-10R, 13S-dimethyl 2,3,4,7, 8R, 9S, 10, 11, 12, 13, 14S, 15, 16, 17-hexadecahydro-1H-cyclopenta[a]phenanthrene-3R, 7R, 17S-triol]",average number of positive changes per patient who improved,"[1]; SD=1.86, range 1-7",4.7
same,Change due to treatment reported by patients: No Change,"[1]; exit interviews, N = 11",2 n
same,patients who experienced no change,"[1]; exit interviews, N = 11, figure in brackets after the count",15.4
same,Change due to treatment reported by patients: No Change,"[1]; exit interviews, N = 11, listed as NE3107",two
same,Cognitive Change from Interview (Memory or Clarity),[1]; subject N-02-22,Improvement
same,Cognitive Change from Interview (Memory or Clarity),[1]; subject N-03-22,Improvement
same,Cognitive Change from Interview (Memory or Clarity),[1]; subject N-07-22,Improvement
same,Cognitive Change from Interview (Memory or Clarity),[1]; subject N-10-22,No Change
same,Cognitive Change from Interview (Memory or Clarity),[1]; subject N-14-22,No Change
same,Cognitive Change from Interview (Memory or Clarity),[1]; subject N-16-22,Improvement
same,Cognitive Change from Interview (Memory or Clarity),[1]; subject N-17-22,Improvement
same,Cognitive Change from Interview (Memory or Clarity),[1]; subject N-18-22,Improvement
same,Cognitive Change from Interview (Memory or Clarity),[1]; subject N-20-22,Improvement
same,Cognitive Change from Interview (Memory or Clarity),[1]; subject N-22-22,Improvement
same,Cognitive Change from Interview (Memory or Clarity),[1]; subject N-23-22,Improvement
same,"increase in ADAS-Cog 11 score, where not decreased","[2]; all interviewed patients, 3-month follow up, 3.1 to 3.8 points = clinically significant worsening",< 3.1 points
same,mean PHQ-9 score decrease,[2]; change from baseline,4.3 points
same,improvement in depression symptoms (PHQ-9),[2]; patients with baseline PHQ-9 score ≥5,greatest improvement in depression symptoms
same,"individual PHQ-9 domains (apathy, depressive symptoms, sleep disturbance, fatigue, eating disorders, low self-esteem)",[2]; patients with baseline PHQ-9 score ≥5 compared to all patients,"greater improvement, compared to all patients"
same,Global Rating of Change (GRC),"[2]; patients with mild dementia, 3 months",improvements on the Global Rating of Change
same,ADAS-Cog 11 decrease,"[2]; patients with mild dementia, baseline vs 3 months, p=0.0046",2.6 point
same,Patient Global Rating of Change (GRC),[2]; subject N-02-22,−5
same,ADAS-Cog-11 score at 3M,"[2]; subject N-02-22, baseline 5.00",5.67
same,ADAS-Cog-11 Change,[2]; subject N-02-22,+0.67
same,Patient Global Rating of Change (GRC),[2]; subject N-03-22,3.5
same,ADAS-Cog-11 score at 3M,"[2]; subject N-03-22, baseline 11.33",6.00
same,ADAS-Cog-11 Change,[2]; subject N-03-22,−5.33
same,Patient Global Rating of Change (GRC),[2]; subject N-07-22,1
same,ADAS-Cog-11 score at 3M,"[2]; subject N-07-22, baseline 19.33",14.67
same,ADAS-Cog-11 Change,[2]; subject N-07-22,−4.67
same,Comparison (ADAS-Cog 11/GRC/Interview),[2]; subject N-10-22,+/−/NC
same,Patient Global Rating of Change (GRC),[2]; subject N-10-22,−1
same,ADAS-Cog-11 score at 3M,"[2]; subject N-10-22, baseline 5.00",2.33
same,ADAS-Cog-11 Change,[2]; subject N-10-22,−2.67
same,Comparison (ADAS-Cog 11/GRC/Interview),[2]; subject N-14-22,+/+/NC
same,Patient Global Rating of Change (GRC),[2]; subject N-14-22,2
same,ADAS-Cog-11 score at 3M,"[2]; subject N-14-22, baseline 14.00",9.00
same,ADAS-Cog-11 Change,[2]; subject N-14-22,−5.00
same,Patient Global Rating of Change (GRC),[2]; subject N-16-22,4
same,ADAS-Cog-11 score at 3M,"[2]; subject N-16-22, baseline 21.00",11.00
same,ADAS-Cog-11 Change,[2]; subject N-16-22,−10.00
same,Patient Global Rating of Change (GRC),[2]; subject N-17-22,4
same,ADAS-Cog-11 score at 3M,"[2]; subject N-17-22, baseline 6.67",9.33
same,ADAS-Cog-11 Change,[2]; subject N-17-22,+2.67
same,Patient Global Rating of Change (GRC),[2]; subject N-18-22,4
same,ADAS-Cog-11 score at 3M,"[2]; subject N-18-22, baseline 10.00",8.67
same,ADAS-Cog-11 Change,[2]; subject N-18-22,−1.33
same,Patient Global Rating of Change (GRC),[2]; subject N-20-22,3
same,ADAS-Cog-11 score at 3M,"[2]; subject N-20-22, baseline 4.00",3.33
same,ADAS-Cog-11 Change,[2]; subject N-20-22,−0.67
same,Patient Global Rating of Change (GRC),[2]; subject N-22-22,5
same,ADAS-Cog-11 score at 3M,"[2]; subject N-22-22, baseline 27.67",29.00
same,ADAS-Cog-11 Change,[2]; subject N-22-22,+1.33
same,Patient Global Rating of Change (GRC),[2]; subject N-23-22,3
same,ADAS-Cog-11 score at 3M,"[2]; subject N-23-22, baseline 9.33",10.00
same,ADAS-Cog-11 Change,[2]; subject N-23-22,+0.67
